# Test results published in patent US9302999B2, “Substituted triazoles as herbicides” (E. I. DU PONT DE NEMOURS AND COMPANY, priority 2012, dated 2016).
# Experiments:
# Assay type in all cases: in vivo
# [1] = system: barnyardgrass (Echinochloa crus-galli); experiment: Test A pre-/postemergence: barnyardgrass
# Procedure, shortened: (§1)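 Rating scale 0–100 (100 = complete control), visual, ~10 days after application in the greenhouse. Applications: preemergence directed soil spray; postemergence at 1–2 leaves.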
# [2] = system: crabgrass, large (large crabgrass, Digitaria sanguinalis); experiment: Test A pre-/postemergence: crabgrass, large
# Procedure, shortened: as §1
# [3] = system: foxtail, giant (giant foxtail, Setaria faberii); experiment: Test A pre-/postemergence: foxtail, giant
# Procedure, shortened: as §1
# [4] = system: morningglory (Ipomoea spp.); experiment: Test A pre-/postemergence: morningglory
# Procedure, shortened: as §1
# [5] = system: pigweed (Amaranthus retroflexus); experiment: Test A pre-/postemergence: pigweed
# Procedure, shortened: as §1
# [6] = system: velvetleaf (Abutilon theophrasti); experiment: Test A pre-/postemergence: velvetleaf
# Procedure, shortened: as §1
# [7] = system: wheat (Triticum aestivum); experiment: Test A pre-/postemergence: wheat
# Procedure, shortened: as §1
# [8] = system: corn (Zea mays); experiment: Test A pre-/postemergence: corn
# Procedure, shortened: as §1
# [9] = system: rice (Oryza sativa); experiment: Test B flooded paddy: rice; settings: Flood, applied to paddy water at 2-leaf stage, visually evaluated after 13 to 15 days
# Procedure, shortened: (§2)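 Each compound is applied to the floodwater of pots holding 2-leaf seedlings, water standing 3 cm over the soil throughout. Plants stay in a greenhouse 13 to 15 days before visual scoring against controls from 0 (no effect) to 100 (complete control).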
# [10] = system: sedge, umbrella (small-flower umbrella sedge Cyperus difformis); experiment: Test B flooded paddy: sedge, umbrella; settings: Flood, applied to paddy water at 2-leaf stage, visually evaluated after 13 to 15 days
# Procedure, shortened: as §2
# [11] = system: ducksalad (Heteranthera limosa); experiment: Test B flooded paddy: ducksalad; settings: Flood, applied to paddy water at 2-leaf stage, visually evaluated after 13 to 15 days
# Procedure, shortened: as §2
# [12] = system: barnyardgrass (Echinochloa crus-galli); experiment: Test B flooded paddy: barnyardgrass; settings: Flood, applied to paddy water at 2-leaf stage, visually evaluated after 13 to 15 days
# Procedure, shortened: as §2
# [13] = Postemergence, 125 g ai/ha, 0 to 100 scale, 0 is no effect, 100 is complete control
# [14] = Postemergence, 500 g ai/ha, 0 to 100 scale, 0 is no effect, 100 is complete control
# [15] = Preemergence, 125 g ai/ha, 0 to 100 scale where 0 is no effect and 100 is complete control
# [16] = Preemergence, 500 g ai/ha, 0 to 100 scale (0 no effect, 100 complete control)
# [17] = Postemergence, 500 g ai/ha, visual rating on 0 to 100 scale (0 no effect, 100 complete control), approximately ten days
# [18] = Preemergence, 125 g ai/ha, 0 to 100 scale (0 no effect, 100 complete control)
# [19] = Preemergence, 500 g ai/ha, 0 to 100 scale, 0 is no effect, 100 is complete control
compound,measurement,setting,value
CCCOc1nn(-c2ccc(C(F)(F)F)cc2)nc1Cc1ccnc(C(F)(F)F)c1 [Compound 191],"Plant response rating, Barnyardgrass",[1]; [13],60
same,Barnyardgrass plant response rating,[1]; [14],100
same,"Plant response rating, Barnyardgrass",[1]; [15],90
same,"Plant response rating, Barnyardgrass",[1]; [16],100
same,"Plant response rating, Crabgrass, Large",[2]; [13],90
same,"Crabgrass, Large plant response rating",[2]; [14],100
same,"Plant response rating, Crabgrass, Large",[2]; [15],100
same,"Plant response rating, Crabgrass, Large",[2]; [16],100
same,"Plant response rating, Foxtail, Giant",[3]; [13],90
same,"Foxtail, Giant plant response rating",[3]; [14],100
same,"Plant response rating, Foxtail, Giant",[3]; [15],100
same,"Plant response rating, Foxtail, Giant",[3]; [16],100
same,"Plant response rating, Morningglory",[4]; [13],100
same,Morningglory plant response rating,[4]; [14],100
same,"Plant response rating, Morningglory",[4]; [15],20
same,"Plant response rating, Morningglory",[4]; [16],30
same,"Plant response rating, Pigweed",[5]; [13],100
same,Pigweed plant response rating,[5]; [14],100
same,"Plant response rating, Pigweed",[5]; [15],100
same,"Plant response rating, Pigweed",[5]; [16],100
same,"Plant response rating, Velvetleaf",[6]; [13],80
same,Velvetleaf plant response rating,[6]; [14],100
same,"Plant response rating, Velvetleaf",[6]; [15],30
same,"Plant response rating, Velvetleaf",[6]; [16],80
same,"Plant response rating, Wheat",[7]; [13],70
same,Wheat plant response rating,[7]; [14],80
same,"Plant response rating, Wheat",[7]; [15],40
same,"Plant response rating, Wheat",[7]; [16],70
same,"Plant response rating, Corn",[8]; [13],30
same,Corn plant response rating,[8]; [14],80
same,"Plant response rating, Corn",[8]; [15],20
same,"Plant response rating, Corn",[8]; [16],60
same,"Plant response rating, Rice (0 to 100 scale, 0 is no effect, 100 is complete control)",[9]; 125 g ai/ha,50
same,"Plant response rating, Sedge, Umbrella (0 to 100 scale, 0 is no effect, 100 is complete control)",[10]; 125 g ai/ha,50
same,"Plant response rating, Ducksalad (0 to 100 scale, 0 is no effect, 100 is complete control)",[11]; 125 g ai/ha,20
same,"Plant response rating, Barnyardgrass (0 to 100 scale, 0 is no effect, 100 is complete control)",[12]; 125 g ai/ha,50
CCCCOc1nn(-c2ccc(C(F)(F)F)cc2)nc1Cc1ccnc(C(F)(F)F)c1 [Compound 194],"Plant response rating, Barnyardgrass",[1]; [13],10
same,Barnyardgrass plant response rating,[1]; [14],20
same,"Plant response rating, Barnyardgrass",[1]; [15],0
same,"Plant response rating, Barnyardgrass",[1]; [16],0
same,"Plant response rating, Crabgrass, Large",[2]; [13],10
same,"Crabgrass, Large plant response rating",[2]; [14],20
same,"Plant response rating, Crabgrass, Large",[2]; [15],0
same,"Plant response rating, Crabgrass, Large",[2]; [16],10
same,"Plant response rating, Foxtail, Giant",[3]; [13],10
same,"Foxtail, Giant plant response rating",[3]; [14],30
same,"Plant response rating, Foxtail, Giant",[3]; [15],0
same,"Plant response rating, Foxtail, Giant",[3]; [16],30
same,"Plant response rating, Morningglory",[4]; [13],10
same,Morningglory plant response rating,[4]; [14],30
same,"Plant response rating, Morningglory",[4]; [15],0
same,"Plant response rating, Morningglory",[4]; [16],0
same,"Plant response rating, Pigweed",[5]; [13],40
same,Pigweed plant response rating,[5]; [14],100
same,"Plant response rating, Pigweed",[5]; [15],0
same,"Plant response rating, Pigweed",[5]; [16],10
same,"Plant response rating, Velvetleaf",[6]; [13],30
same,Velvetleaf plant response rating,[6]; [14],50
same,"Plant response rating, Velvetleaf",[6]; [15],0
same,"Plant response rating, Velvetleaf",[6]; [16],0
same,"Plant response rating, Wheat",[7]; [13],0
same,Wheat plant response rating,[7]; [14],20
same,"Plant response rating, Wheat",[7]; [15],0
same,"Plant response rating, Wheat",[7]; [16],0
same,"Plant response rating, Corn",[8]; [13],0
same,Corn plant response rating,[8]; [14],20
same,"Plant response rating, Corn",[8]; [15],0
same,"Plant response rating, Corn",[8]; [16],0
same,"Plant response rating, Rice (0 to 100 scale, 0 is no effect, 100 is complete control)",[9]; 125 g ai/ha,0
same,"Plant response rating, Sedge, Umbrella (0 to 100 scale, 0 is no effect, 100 is complete control)",[10]; 125 g ai/ha,0
same,"Plant response rating, Ducksalad (0 to 100 scale, 0 is no effect, 100 is complete control)",[11]; 125 g ai/ha,0
same,"Plant response rating, Barnyardgrass (0 to 100 scale, 0 is no effect, 100 is complete control)",[12]; 125 g ai/ha,0
Cc1ccc(-n2nc(C)c(C(=O)c3cccc(C(F)(F)F)c3)n2)cc1 [Compound 44],Barnyardgrass plant response rating,[1]; [13],20
same,Barnyardgrass plant response rating,[1]; [17],20
same,"Plant response rating, Barnyardgrass",[1]; [18],0
same,"Plant response rating, Barnyardgrass",[1]; [19],30
same,"Crabgrass, Large plant response rating",[2]; [13],30
same,"Crabgrass, Large plant response rating",[2]; [17],40
same,"Plant response rating, Crabgrass, Large",[2]; [18],60
same,"Plant response rating, Crabgrass, Large",[2]; [19],90
same,"Foxtail, Giant plant response rating",[3]; [13],20
same,"Foxtail, Giant plant response rating",[3]; [17],30
same,"Plant response rating, Foxtail, Giant",[3]; [18],70
same,"Plant response rating, Foxtail, Giant",[3]; [19],90
same,Morningglory plant response rating,[4]; [13],20
same,Morningglory plant response rating,[4]; [17],70
same,Pigweed plant response rating,[5]; [13],70
same,Pigweed plant response rating,[5]; [17],90
same,"Plant response rating, Pigweed",[5]; [18],20
same,"Plant response rating, Pigweed",[5]; [19],90
same,Velvetleaf plant response rating,[6]; [13],60
same,Velvetleaf plant response rating,[6]; [17],70
same,"Plant response rating, Velvetleaf",[6]; [18],0
same,"Plant response rating, Velvetleaf",[6]; [19],50
same,Wheat plant response rating,[7]; [13],20
same,Wheat plant response rating,[7]; [17],30
same,"Plant response rating, Wheat",[7]; [18],0
same,"Plant response rating, Wheat",[7]; [19],30
same,Corn plant response rating,[8]; [13],30
same,Corn plant response rating,[8]; [17],30
same,"Plant response rating, Corn",[8]; [18],0
same,"Plant response rating, Corn",[8]; [19],20
same,"Plant response rating, Rice (0 to 100 scale, 0 is no effect, 100 is complete control)",[9]; 250 g ai/ha,0
same,"Plant response rating, Sedge, Umbrella (0 to 100 scale, 0 is no effect, 100 is complete control)",[10]; 250 g ai/ha,0
same,"Plant response rating, Ducksalad (0 to 100 scale, 0 is no effect, 100 is complete control)",[11]; 250 g ai/ha,0
same,"Plant response rating, Barnyardgrass (0 to 100 scale, 0 is no effect, 100 is complete control)",[12]; 250 g ai/ha,0
CCOc1nn(-c2ccc(F)cc2F)nc1Cc1ccnc(C(F)(F)F)c1 [Compound 190],"Plant response rating, Barnyardgrass",[1]; [13],100
same,Barnyardgrass plant response rating,[1]; [14],100
same,"Plant response rating, Barnyardgrass",[1]; [15],100
same,"Plant response rating, Barnyardgrass",[1]; [16],100
same,"Plant response rating, Crabgrass, Large",[2]; [13],100
same,"Crabgrass, Large plant response rating",[2]; [14],100
same,"Plant response rating, Crabgrass, Large",[2]; [15],100
same,"Plant response rating, Crabgrass, Large",[2]; [16],100
same,"Plant response rating, Foxtail, Giant",[3]; [13],100
same,"Foxtail, Giant plant response rating",[3]; [14],100
same,"Plant response rating, Foxtail, Giant",[3]; [15],100
same,"Plant response rating, Foxtail, Giant",[3]; [16],100
same,"Plant response rating, Morningglory",[4]; [13],100
same,Morningglory plant response rating,[4]; [14],100
same,"Plant response rating, Morningglory",[4]; [15],80
same,"Plant response rating, Morningglory",[4]; [16],80
same,"Plant response rating, Pigweed",[5]; [13],100
same,Pigweed plant response rating,[5]; [14],100
same,"Plant response rating, Pigweed",[5]; [15],100
same,"Plant response rating, Pigweed",[5]; [16],100
same,"Plant response rating, Velvetleaf",[6]; [13],100
same,Velvetleaf plant response rating,[6]; [14],100
same,"Plant response rating, Velvetleaf",[6]; [15],40
same,"Plant response rating, Velvetleaf",[6]; [16],100
same,"Plant response rating, Wheat",[7]; [13],70
same,Wheat plant response rating,[7]; [14],100
same,"Plant response rating, Wheat",[7]; [15],60
same,"Plant response rating, Wheat",[7]; [16],80
same,"Plant response rating, Corn",[8]; [13],60
same,Corn plant response rating,[8]; [14],90
same,"Plant response rating, Corn",[8]; [15],30
same,"Plant response rating, Corn",[8]; [16],90
same,"Plant response rating, Rice (0 to 100 scale, 0 is no effect, 100 is complete control)",[9]; 125 g ai/ha,50
same,"Plant response rating, Sedge, Umbrella (0 to 100 scale, 0 is no effect, 100 is complete control)",[10]; 125 g ai/ha,95
same,"Plant response rating, Ducksalad (0 to 100 scale, 0 is no effect, 100 is complete control)",[11]; 125 g ai/ha,70
same,"Plant response rating, Barnyardgrass (0 to 100 scale, 0 is no effect, 100 is complete control)",[12]; 125 g ai/ha,70
